Like-named read-outs stand apart in the source and are kept apart here.
Experiments:
[1] = test system: Ba/F3 cell EGFR (ex19del); assay: Ba/F3-EGFR cell viability assay (CellTiter-Glo); type: cell-based, murine; settings: Mus musculus, BaF3, Mean
[2] = target: human recombinant EGFR L858R (Homo sapiens, UniProt P00533, L858R); assay: EGFR biochemical kinetics assay (PhosphoSens Kinase Assay), Ki
[3] = test system: Ba/F3 cell EGFR (L858R/T790M/C797S); assay: Ba/F3-EGFR cell viability assay (CellTiter-Glo); type: cell-based, murine; settings: Mus musculus, BaF3, Mean
[4] = target: human recombinant EGFR L858R/T790M (Homo sapiens, UniProt P00533, L858R/T790M); assay: EGFR biochemical kinetics assay (PhosphoSens Kinase Assay), Ki
[5] = target: recombinant wild-type and mutated EGFR; assay: Off-chip mobility shift assay (MSA) at ATP concentrations near Km; type: biochemical, human; settings: ATP concentrations near the Km values for ATP in each recombinant EGFR
Protocol: The reaction mixtures and test compounds dissolved in dimethylsulfoxide (DMSO) were mixed and incubated for 1 hour at room temperature. The reaction was terminated by adding the Termination Buffer of QuickScout Screening Assist MSA (Carna Biosciences). The reaction mixture was applied to a LabChip system (PerkinElmer), and the product (P) and substrate (S) peptide peaks were separated and quantified. The kinase reaction was evaluated by calculating the product ratio from the peak heights of the P and S peptides (P/(P + S)). […] IC50 values were calculated from the concentration vs %inhibition curves by fitting to a four-parameter logistic curve using Microsoft Excel 2013 with the Solver add-in software.
Supplementary Fig 1. Chemical structure of EGFR-TKIs in the series of pyrrolopyrimidine-quinoline chemical core structure. The chemical structures of TAS3351 (a), TAS3351 analog, […]
the pyrrolopyrimidine-quinoline chemical core structure. Red-highlighted parts of the chemical structures indicate the pyrrolopyrimidine-quinoline. […]
inhibition was measured via Off-chip Mobility Shift Assay (MSA) using recombinant wild-type and mutated EGFR in the ATP concentration relevant to Km values of each human recombinant EGFR. ATP concentrations in the assay in each recombinant EGFR are as follows: wild type, ex19del/T790M, and […]
indicate standard deviation (s.d.) from triplicates. […]

255 kinases = assay: Kinome-wide selectivity, Off-chip Mobility Shift Assay; type: biochemical; settings: 20 nmol/L
Protocol: However, the potential secondary effects of the pharmacological inhibition of these eight kinases, with IC50 values below that of the wild-type EGFR, remain to be elucidated.
Supplementary Fig 3. […] The […]
plasmon resonance (SPR) analysis with single-cycle kinetics. KD values were calculated via curve fitting with 1:1 binding model or steady-state affinity evaluation. Mean KD values and standard deviation (s.d.) obtained from three independent experiments are shown.
Supplementary Fig 4. Kinome-wide selectivity of TAS3351. […]
determination of the IC50 values. […]

[6] = test system: EGFR harboring L718Q and L718V; assay: Inhibitory spectrum against other osimertinib-resistant mutations (author rebuttal); settings: data not shown
[7] = test system: pEGFR, pAkt, pErk1/2 in NCI-H1975 xenograft tumors; assay: Pharmacodynamic marker analysis (immunoblotting) in NCI-H1975 xenograft tumors; type: in vivo, mouse; settings: for phosphorylation of EGFR, Akt, and Erk1/2 in tumor: 24 h
Protocol: Frozen tumor samples were homogenized in cold RIPA buffer (Thermo Fisher Scientific) supplemented with PhosSTOP (Merck KGaA) and cOmplete, Mini, EDTA-free Protease Inhibitor Cocktail (Merck KGaA) using Multi-beads Shocker (Yasui Kikai Corporation). The tumor protein extracts obtained via centrifugation of the supernatants were stored on ice until the assay. The protein concentration of the extracts was determined using BCA Protein Assay (Thermo Fisher Scientific), according to the manufacturer’s protocol. The protein concentration of the extracts was adjusted to 1 mg/mL using RIPA buffer and Lane Marker Reducing Sample Buffer (Thermo Fisher Scientific) to prepare SDS-PAGE samples; afterward, the samples were denatured by heating at 98 °C for 5 min. After cooling to room temperature, the extracts and samples were frozen until SDS-PAGE analysis. 5 μg/lane of each SDS-PAGE sample was subjected to SDS-PAGE analysis using 7.5% polyacrylamide gels (Bio-Rad Laboratories) and transferred to polyvinylidene difluoride (PVDF) membranes using a Trans-Blot Turbo Transfer System (Bio-Rad Laboratories). Membranes were blocked with the PVDF Blocking Reagent for Can Get Signal (TOYOBO). After blotting with primary antibodies, the membranes were incubated with horseradish peroxidase (HRP)-conjugated secondary antibodies. The antibodies were diluted in Can Get Signal Solution1/2 (TOYOBO) according to the manufacturer’s protocol. […] All antibodies were diluted to a concentration of 1:1000.

[8] = test system: NIH/3T3-EGFR (ex19del/T790M/C797S)-luc cells; assay: Intracranial tumor transplanted mouse allograft model; type: in vivo; settings: 20 and 40 mg/kg; with statistical significance
[9] = test system: A-431 (wild-type) xenograft; type: in vivo, mouse; settings: at least at doses below 50 mg/kg; once-daily oral
[10] = test system: P-gp and BCRP in Caco-2 cells
[11] = Body weight evaluation in allograft and xenograft mouse models; type: in vivo; settings: once-daily oral administration; NIH/3T3-EGFR allograft models (Fig. 5a–d)
[12] = target: human recombinant EGFR Ex19del/T790M/C797S (Homo sapiens, UniProt P00533, C797S/DEL746-750/T790M); assay: EGFR biochemical kinetics assay (PhosphoSens Kinase Assay), Ki
[13] = target: human recombinant EGFR Ex19del (Homo sapiens, UniProt P00533, DEL746-750); assay: as above
[14] = Assessment of brain penetrability in mice (plasma and brain PK); type: in vivo; settings: BALB/cAJcl-nu/nu, mouse; for AUC(0-t): plasma, male nude mice, read-out: AUC0-24 hr Plasma; for Kp uu / Kp: male, oral; for Kp uu: brain, unbound brain AUC / unbound plasma AUC; for Kp: brain AUC0-24 hr / plasma AUC0-24 hr
[15] = target: human recombinant EGFR Ex19del/T790M (Homo sapiens, UniProt P00533, DEL746-750/T790M); assay: EGFR biochemical kinetics assay (PhosphoSens Kinase Assay), Ki

IC50 [1]: 2.84 nM | Ki [2]: 0.259 nM | difference in the Ki values between ex19del and L858R mutations ([2]; L858R vs ex19del): over 50 fold | IC50 [3]: 241 nM | Ki [4]: 0.224 nM | IC50 values [5]: sub-nanomolar range | P-gp or BCRP substrate [10]: not a P-gp or BCRP substrate | Ki [12]: 0.018 nM | Ki [13]: 0.0048 nM | AUC(0-t) ([14]; 20 mg/kg single oral): 72.5 µM·h | AUC(0-t) ([14]; 40 mg/kg single oral): 202 µM·h | AUC(0-t) ([14]; 80 mg/kg single oral): 377 µM·h | Kp uu ([14]; 20 mg/kg): 0.68 | Kp uu ([14]; 40 mg/kg): 1.08 | Kp uu ([14]; 80 mg/kg): 1.47 | Kp ([14]; 20 mg/kg): 0.32 | Kp ([14]; 40 mg/kg): 0.51 | Kp ([14]; 80 mg/kg): 0.69 | Ki [15]: 0.00649 nM
SMILES: C#Cc1c(-c2cnc3ccccc3c2)c2c(N)ncnc2n1C12CCC(NC(=O)c3cnc(C)cn3)(CC1)C2 [TAS3351]
number of kinases whose enzymatic activity was inhibited by over 50% (255 kinases): 26 | efficacy against EGFR harboring L718Q and L718V [6]: not effective | phosphorylation of EGFR, Akt, and Erk1/2 in tumor ([7]; 40 mg/kg single oral): restored to nearly baseline | phosphorylation of EGFR, Akt, and Erk1/2 in tumor ([7]; 80 mg/kg single oral): partially inhibited | phosphorylation of EGFR, Akt, and Erk1/2 in tumor vs control ([7]; 40 and 80 mg/kg single oral, 1–8 h post-administration): significantly reduced | intracranial luciferase activity (total flux) vs vehicle [8]: reduced intracranial luciferase activity | inhibition of xenograft growth [9]: did not demonstrate statistically significant inhibition of xenograft growth | body weight [11]: without apparent body weight loss
